Results taken from patent US20100189648A1, “INHIBITORS FOR DISRUPTING THE INTERACTION OF UBIQUITINATION RELATED ENZYMES AND USES THEREOF” (priority 2006, published 2010).
≈ marks a conversion by molar mass, not a printed value. Read-outs that look alike come from different tables or passages of the source.

Tests used:
Format in all cases: cell-based, human
U251 = assay: MTT survival assay, glioma cell line (brain tumor U251); settings: U251 (first table)
Procedure: (§1) The effect of the above identified compounds on anti-tumor activity in human carcinoma cells was determined by the MTT survival assay. The MTT assay is a commonly used method in evaluation of cell survival, based on the ability of viable cells to convert MTT (MTT, Sigma, Cat No. 044K5307), a soluble tetrazolium salt [3-(4,5-dimethylthuazole-2-yl)-2,5 diphenyl tetrazolium bromide], into an insoluble formazan precipitate, which is quantitated by spectrophotometry following solubilization in dimethyl sulfoxide (DMSO).
(§2) In brief, different carcinoma cells were treated with negative control, various test articles at different concentration, and positive control (DDP), in 96-well tissue culture dishes. Each test article at different concentration is repeated 3 times.
(§3) Different carcinoma cells were diluted with 10% FBS and RPM1640 or MEM media to a concentration of 3-5×10^4 per ml suspension. 100 microliter of cells were incubated in each well in 96-well tissue culture dishes at 37 C. The cells were incubated at 37 C on the first day. On the second day, media supernatant was removed and replaced with media and different concentration of test articles (100 microliter in each well). Three Negative control wells and three positive control (DDP) wells were also included. The 96-well plate were incubated at 37 C for another 68 hours. After 68 hours, supernatant of each well was removed. 100 microliter of 1 mg/ml MTT diluted in PBS was injected into each well. The cells were incubated at 37 C for another 4 hours. The cells were then solubilized in 150 microliter DMSO, mixed for 10 minutes and absorbance readings were taken using Microplate reader Bio-Rad Model 550 at 570 nm. IR (cell growth inhibition rate) % was calculated as (OD570 of negative control-OD570 with test article)/OD570 of negative control. IC50 (cell 50% inhibition concentration) at 95% confidence level was calculated with Bliss method.

MCF-7 = assay: MTT survival assay, breast cancer cell line (MCF-7); settings: for IC50: Homo sapiens
Procedure: as §1, §2, §3

Hela cells = assay: MTT survival assay, cervical cancer line (Hela cells); settings: for IC50: Homo sapiens
Procedure: as §1, §2, §3

SMMC-7721 = assay: MTT survival assay, liver cancer cell line (SMMC-7721); settings: SMMC-7721; for IC50: Homo sapiens
Procedure: as §1, §2, §3

A459 = assay: MTT survival assay, lung cancer cell line (A459); settings: A459; for IC50: Homo sapiens
Procedure: as §1, §2, §3

SKOV3 = assay: MTT survival assay, ovarian cancer cell line (SKOV3); settings: SKOV3 (first table)
Procedure: as §1, §2, §3

[1] = 95% confidence limits of IC50, read-out: IC50 (95% confidence level), interval
[2] = Bliss method, unit not printed (concentrations in μg/ml), read-out: IC50 (95% confidence level)

## O=C(Nc1ccnc2[nH]ccc12)c1cc2ccccc2s1 [Mol 11]
U251; Homo sapiens, U-251, Bliss method, unit not printed (concentrations in μg/ml), read-out: IC50 (95% confidence level)
  IC50: 4340 µg/mL (≈ 14800 µM)
U251; 3.125 μg/ml
  IR (%): 9.1%
  OD(A570 nm): 0.797 ± 0.016
U251; 6.25 μg/ml
  IR (%): 13.5%
  OD(A570 nm): 0.758 ± 0.019
U251; 12.5 μg/ml
  IR (%): 15.1%
  OD(A570 nm): 0.744 ± 0.045
U251; 25 μg/ml
  IR (%): 20.5%
  OD(A570 nm): 0.697 ± 0.053
U251; 50 μg/ml
  IR (%): 19.1%
  OD(A570 nm): 0.709 ± 0.054
U251; 100 μg/ml
  IR (%): 25.8%
  OD(A570 nm): 0.650 ± 0.006
MCF-7; 3.125 μg/ml
  IR (%): 0%
  OD(A570 nm): 0.903 ± 0.194
MCF-7; 6.25 μg/ml
  IR (%): 21.2%
  OD(A570 nm): 0.711 ± 0.045
MCF-7; 12.5 μg/ml
  IR (%): 16.6%
  OD(A570 nm): 0.752 ± 0.164
MCF-7; 25 μg/ml
  IR (%): 21.9%
  OD(A570 nm): 0.705 ± 0.076
MCF-7; 50 μg/ml
  IR (%): 45.7%
  OD(A570 nm): 0.490 ± 0.093
MCF-7; 100 μg/ml
  IR (%): 47.0%
  OD(A570 nm): 0.478 ± 0.079
MCF-7; MCF7, 95% confidence limits of IC50, read-out: IC50 (95% confidence level), interval
  IC50: 66.9 to 154 µg/mL (≈ 228 to 526 µM)
MCF-7; MCF7, Bliss method, unit not printed (concentrations in μg/ml), read-out: IC50 (95% confidence level)
  IC50: 94.2 µg/mL (≈ 321 µM)
Hela cells; 0.41 μg/ml
  IR (%): 0.7%
  OD(A570 nm): 0.738 ± 0.080
Hela cells; 1.23 μg/ml
  OD(A570 nm): 0.790 ± 0.037
Hela cells; 3.70 μg/ml
  IR (%): 2.6%
  OD(A570 nm): 0.723 ± 0.032
Hela cells; 11.11 μg/ml
  IR (%): 12.0%
  OD(A570 nm): 0.653 ± 0.134
Hela cells; 33.33 μg/ml
  IR (%): 61.9%
  OD(A570 nm): 0.283 ± 0.047
Hela cells; 100 μg/ml
  IR (%): 80.5%
  OD(A570 nm): 0.145 ± 0.031
Hela cells; [1]
  IC50: 26.8 to 38.3 µg/mL (≈ 91.3 to 131 µM)
Hela cells; [2]
  IC50: 31.9 µg/mL (≈ 109 µM)
SMMC-7721; [1]
  IC50: 14.3 to 15.5 µg/mL (≈ 48.9 to 53 µM)
SMMC-7721; [2]
  IC50: 14.9 µg/mL (≈ 50.9 µM)
SMMC-7721; 3.125 μg/ml
  IR (%): 37.0%
  OD(A570 nm): 0.277 ± 0.018
SMMC-7721; 6.25 μg/ml
  IR (%): 35.1%
  OD(A570 nm): 0.286 ± 0.092
SMMC-7721; 12.5 μg/ml
  IR (%): 53.1%
  OD(A570 nm): 0.207 ± 0.007
SMMC-7721; 25 μg/ml
  IR (%): 53.5%
  OD(A570 nm): 0.205 ± 0.018
SMMC-7721; 50 μg/ml
  IR (%): 63.0%
  OD(A570 nm): 0.163 ± 0.009
SMMC-7721; 100 μg/ml
  IR (%): 68.1%
  OD(A570 nm): 0.141 ± 0.006
A459; 3.125 μg/ml
  IR (%): 8.6%
  OD(A570 nm): 0.583 ± 0.015
A459; 6.25 μg/ml
  IR (%): 26.1%
  OD(A570 nm): 0.471 ± 0.001
A459; 12.5 μg/ml
  IR (%): 31.2%
  OD(A570 nm): 0.438 ± 0.051
A459; 25 μg/ml
  IR (%): 64.0%
  OD(A570 nm): 0.230 ± 0.040
A459; 50 μg/ml
  IR (%): 76.1%
  OD(A570 nm): 0.152 ± 0.017
A459; 100 μg/ml
  IR (%): 83.1%
  OD(A570 nm): 0.108 ± 0.013
A459; [1]
  IC50: 19.1 to 19.8 µg/mL (≈ 65.2 to 67.4 µM)
A459; [2]
  IC50: 19.4 µg/mL (≈ 66.3 µM)
SKOV3; Homo sapiens, SK-OV-3, Bliss method, unit not printed (concentrations in μg/ml), read-out: IC50 (95% confidence level)
  IC50: 29 µg/mL (≈ 98.9 µM)
SKOV3; 3.125 μg/ml
  IR (%): 0%
  OD(A570 nm): 0.753 ± 0.074
SKOV3; 6.25 μg/ml
  IR (%): 0.9%
  OD(A570 nm): 0.694 ± 0.043
SKOV3; 12.5 μg/ml
  IR (%): 4.1%
  OD(A570 nm): 0.671 ± 0.063
SKOV3; 25 μg/ml
  IR (%): 45.0%
  OD(A570 nm): 0.385 ± 0.017
SKOV3; 50 μg/ml
  IR (%): 55.1%
  OD(A570 nm): 0.314 ± 0.041
SKOV3; 100 μg/ml
  IR (%): 86.0%
  OD(A570 nm): 0.098 ± 0.010
